Reference: ChEMBL document CHEMBL3808316, “Design, synthesis and biological evaluation of novel tetrahydroisoquinoline quaternary derivatives as peripheral κ-opioid receptor agonists” (Bioorg Med Chem, 2016)

What was measured:
[1] = biological target: T1, Kappa-type opioid receptor (Homo sapiens, UniProt P41145); experiment: Displacement of [3H]diprenorphine from human kappa opioid receptor expressed in CHO cell membranes at 10^-6 M after 30 mins by liquid scintillation counting analysis
[2] = biological target: Mu-type opioid receptor (Rattus norvegicus) (UniProt P33535); experiment: Displacement of [3H]diprenorphine from rat mu opioid receptor expressed in CHO cell membranes at 10^-6 M after 30 mins by liquid scintillation counting analysis
Chain of Mu-type opioid receptor (Rattus norvegicus) (P33535 whole entry): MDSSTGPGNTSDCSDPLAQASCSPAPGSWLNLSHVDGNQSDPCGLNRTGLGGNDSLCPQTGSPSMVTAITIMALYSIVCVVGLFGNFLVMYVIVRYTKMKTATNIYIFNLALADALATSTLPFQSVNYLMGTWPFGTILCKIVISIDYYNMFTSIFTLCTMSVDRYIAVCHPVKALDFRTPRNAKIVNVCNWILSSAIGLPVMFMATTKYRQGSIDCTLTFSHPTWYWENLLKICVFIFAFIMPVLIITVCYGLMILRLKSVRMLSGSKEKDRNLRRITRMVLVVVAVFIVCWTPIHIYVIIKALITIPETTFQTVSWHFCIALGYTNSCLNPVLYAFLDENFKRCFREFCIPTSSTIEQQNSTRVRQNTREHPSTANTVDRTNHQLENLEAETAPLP

[3] = biological target: T1, Kappa-type opioid receptor; experiment: Displacement of [3H]diprenorphine from human kappa opioid receptor expressed in CHO cell membranes at 10^-5 M after 30 mins by liquid scintillation counting analysis
[4] = biological target: Mu-type opioid receptor (Rattus norvegicus) (UniProt P33535); experiment: Displacement of [3H]diprenorphine from rat mu opioid receptor expressed in CHO cell membranes at 10^-5 M after 30 mins by liquid scintillation counting analysis
[5] = biological target: T1, Kappa-type opioid receptor; experiment: Displacement of [3H]diprenorphine from human kappa opioid receptor expressed in CHO cell membranes after 30 mins by liquid scintillation counting analysis
[6] = Selectivity ratio of Ki for rat mu opioid receptor to Ki for human kappa opioid receptor
[7] = system: Mus musculus; experiment: Peripheral restriction index, ratio of sedative ED50 in sc dosed Kunming mouse to antinociceptive ED50 in ip dosed mouse
[8] = system: Mus musculus; experiment: Sedative activity in sc dosed Kunming mouse assessed as center square duration time at 25 ug/kg after 45 mins by open field test (reference value: 13.2 +/- 3.1 secs); assay type: ADME, organism-based; details: in vivo, 0.025 mg/kg, 0.75 h
[9] = system: Mus musculus; experiment: Sedative activity in sc dosed Kunming mouse assessed as center square duration distance at 25 ug/kg after 45 mins by open field test (reference value: 1.77 +/- 0.81 m); assay type: ADME, organism-based; details: in vivo, 0.025 mg/kg, 0.75 h
[10] = system: Mus musculus; experiment: Antinociceptive activity in ip dosed mouse assessed as acetic acid induced writhing administered 30 mins prior to acetic acid challenge measured for 20 mins; assay type: functional
[11] = system: Mus musculus; experiment: Sedative activity in sc dosed Kunming mouse assessed as crossing number at 25 ug/kg after 45 mins by open field test (reference value: 155 +/- 34); assay type: ADME, organism-based; details: in vivo, 0.025 mg/kg, 0.75 h
[12] = system: Mus musculus; experiment: Sedative activity in sc dosed Kunming mouse assessed as […] after 20 mins by rotation test; assay type: ADME, organism-based; details: in vivo
[13] = system: Mus musculus; experiment: Potency index, ratio of antinociceptive ED50 for U50488H to antinociceptive ED50 for test compound in ip dosed mouse after 20 mins; assay type: functional
[14] = system: Mus musculus; experiment: Sedative activity in sc dosed Kunming mouse assessed as center square duration distance at 100 ug/kg after 45 mins by open field test (reference value: 1.77 +/- 0.81 m); assay type: ADME, organism-based; details: in vivo, 0.1 mg/kg, 0.75 h
[15] = system: Mus musculus; experiment: Sedative activity in sc dosed Kunming mouse assessed as center square duration time at 200 ug/kg after 45 mins by open field test (reference value: 13.2 +/- 3.1 secs); assay type: ADME, organism-based; details: in vivo, 0.2 mg/kg, 0.75 h
[16] = system: Mus musculus; experiment: Sedative activity in sc dosed Kunming mouse assessed as crossing number at 200 ug/kg after 45 mins by open field test (reference value: 155 +/- 34); assay type: ADME, organism-based; details: in vivo, 0.2 mg/kg, 0.75 h
[17] = system: Mus musculus; experiment: Sedative activity in sc dosed Kunming mouse assessed as crossing number at 50 ug/kg after 45 mins by open field test (reference value: 155 +/- 34); assay type: ADME, organism-based; details: in vivo, 0.05 mg/kg, 0.75 h
[18] = system: Mus musculus; experiment: Sedative activity in sc dosed Kunming mouse assessed as center square duration distance at 50 ug/kg after 45 mins by open field test (reference value: 1.77 +/- 0.81 m); assay type: ADME, organism-based; details: in vivo, 0.05 mg/kg, 0.75 h
[19] = system: Mus musculus; experiment: Sedative activity in sc dosed Kunming mouse assessed as center square duration time at 100 ug/kg after 45 mins by open field test (reference value: 13.2 +/- 3.1 secs); assay type: ADME, organism-based; details: in vivo, 0.1 mg/kg, 0.75 h
[20] = system: Mus musculus; experiment: Sedative activity in sc dosed Kunming mouse assessed as center square duration time at 50 ug/kg after 45 mins by open field test (reference value: 13.2 +/- 3.1 secs); assay type: ADME, organism-based; details: in vivo, 0.05 mg/kg, 0.75 h
[21] = system: Mus musculus; experiment: Sedative activity in sc dosed Kunming mouse assessed as center square duration distance at 200 ug/kg after 45 mins by open field test (reference value: 1.77 +/- 0.81 m); assay type: ADME, organism-based; details: in vivo, 0.2 mg/kg, 0.75 h
[22] = system: Mus musculus; experiment: Sedative activity in sc dosed Kunming mouse assessed as crossing number at 100 ug/kg after 45 mins by open field test (reference value: 155 +/- 34); assay type: ADME, organism-based; details: in vivo, 0.1 mg/kg, 0.75 h

T1 sequence (P41145 whole entry): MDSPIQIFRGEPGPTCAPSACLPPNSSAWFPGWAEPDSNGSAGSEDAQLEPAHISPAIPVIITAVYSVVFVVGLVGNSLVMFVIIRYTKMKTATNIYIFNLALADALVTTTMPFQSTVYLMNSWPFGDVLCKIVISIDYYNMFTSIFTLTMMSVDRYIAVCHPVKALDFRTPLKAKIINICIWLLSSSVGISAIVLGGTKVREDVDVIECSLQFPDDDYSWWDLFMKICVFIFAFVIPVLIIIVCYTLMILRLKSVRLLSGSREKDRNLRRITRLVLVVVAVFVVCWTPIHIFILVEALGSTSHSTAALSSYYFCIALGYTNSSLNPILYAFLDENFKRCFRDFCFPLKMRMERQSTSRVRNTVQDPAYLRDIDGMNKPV

Structure (SMILES) | inhibition [1] | inhibition [2] | inhibition [3] | inhibition [4] | Ki [5] | other results
COc1ccc(C[N+]2(CC3c4ccccc4CCN3C(=O)C3CC(=O)c4ccc(Cl)cc43)CCCC2)cc1 (stereo not drawn) | 3.9% | 0% | 83% | 9.8% |  | 
O=C1CC(C(=O)N2CCc3ccccc3C2C[N+]2(Cc3ccc(Cl)cc3Cl)CCCC2)c2cc(Cl)ccc21 (stereo not drawn) | 12.1% | 0% | 31.9% | 10.4% |  | 
COc1ccc2c(c1)C(C[N+]1(C)CCCC1)N(C(=O)C1CC(=O)c3ccc(Cl)cc31)CC2 (stereo not drawn) | 0% | 0% | 8.6% | 0% |  | 
O=C1CC(C(=O)N2CCc3ccccc3C2C[N+]2(Cc3ccc(F)cc3)CCCC2)c2cc(Cl)ccc21 (stereo not drawn) | 0% | 0% | 13.1% | 0% |  | 
C[N+]1(CC2c3ccc(O)cc3CCN2C(=O)C2CC(=O)c3ccc(Cl)cc32)CCCC1 (stereo not drawn) | 67.3% | 8.2% | 87.7% | 34.5% | 231 nM | 
C[N+]1(CC2c3cc(F)ccc3CCN2C(=O)C2CC(=O)c3ccc(Cl)cc32)CCCC1 (stereo not drawn) | 86% | 8.9% | 97.4% | 26.5% | 138 nM | 
O=C1CC(C(=O)N2CCc3ccccc3C2C[N+]2(Cc3ccccc3)CCCC2)c2cc(Cl)ccc21 (stereo not drawn) | 43.1% | 0% | 86% | 0% |  | 
COc1ccc2c(c1)CCN(C(=O)C1CC(=O)c3ccc(Cl)cc31)C2C[N+]1(C)CCCC1 (stereo not drawn) | 50% | 4% | 85.5% | 9.8% |  | 
O=C1CC(C(=O)N2CCc3ccccc3C2CN2CCCC2)c2cc(Cl)ccc21 (stereo not drawn) |  |  |  |  | 0.033 nM | Ratio Ki [6]: 21.1; Ratio ED50 [7]: 1.4; Time [8]: 27.1 s; Activity [9]: 1.21 m; ED50 [10]: 0.000406 mg/kg; Activity [11]: 71; ED50 [12]: 0.000568 mg/kg
C[N+]1(CC2c3ccccc3CCN2C(=O)C2CC(=O)c3ccc(Cl)cc32)CCCC1 (stereo not drawn) | 10.8% | 0% | 83.7% | 0% | > 10000 nM | 
O=C1CC(C(=O)N2CCc3ccccc3C2C[N+]2(Cc3ccc(Cl)cc3)CCCC2)c2cc(Cl)ccc21 (stereo not drawn) | 31.3% | 0% | 89.3% | 10% |  | 
CC[N+]1(CC2c3ccccc3CCN2C(=O)C2CC(=O)c3ccc(Cl)cc32)CCCC1 (stereo not drawn) | 31.9% | 0% | 89.1% | 0% |  | 
CCCC[N+]1(CC2c3ccccc3CCN2C(=O)C2CC(=O)c3ccc(Cl)cc32)CCCC1.[I-] (stereo not drawn) | 100% | 28.8% | 100% | 62.4% | 0.94 nM | Ratio ED50 [13]: 40; Ratio ED50 [7]: 10.2; Activity [14]: 1.92 m; Time [15]: 27.4 s; Activity [16]: 91; Activity [17]: 153; Activity [18]: 1.02 m; ED50 [10]: 0.022 mg/kg; Time [19]: 19.1 s; Time [20]: 17.4 s; ED50 [12]: 0.24 mg/kg; Activity [21]: 1.93 m; Activity [22]: 138
O=C1CC(C(=O)N2CCc3ccccc3C2C[N+]2(CC3CC3)CCCC2)c2cc(Cl)ccc21 (stereo not drawn) | 98.8% | 29.2% | 100% | 48% | 3.56 nM | 
C=CC[N+]1(CC2c3ccccc3CCN2C(=O)C2CC(=O)c3ccc(Cl)cc32)CCCC1 (stereo not drawn) | 100% | 37.4% | 100% | 56.5% | 1.86 nM | 
